{"source": "patent US7314878B2", "about": "“Piperazine benzothiazoles as agents for the treatment of cerebral ischemic disorders or CNS disorders” (Laboratories Serono SA, priority 2002, dated 2008)", "key": {"[1]": {"tested_on": "neuronal death in CA1/CA2 subfields of the hippocampus", "test": "Global ischemia in gerbils (bilateral carotid occlusion)", "assay_type": "in vivo", "conditions": "40 mg per kg ip, 15 min, 24 h and 48 h after reperfusion; gerbil", "text": "b) Global Ischemia in Gerbils\nThe ability of the JNK inhibitors described in formula I to protect cell death during a stroke event may be assessed using the following protocol:\nThe gerbil bilateral carotid occlusion is a well-described animal model of acute ischemic stroke and involves relatively easy surgical techniques.\nThe neuronal degeneration in the hippocampus develops over several days and is often referred as “delayed neuronal death”. In addition, the neurodegeneration observed histologically is obvious and easily quantified (11). Furthermore, the histopathology seen in the gerbil is similar to that observed in the hippocampal CA1 region of the human brain following a cardiac arrest. Behavior observations, such as memory tests, could even be performed in the case of gerbils. This kind of tests for appreciation of the degree of recovery is not easily manageable in other models such as in rat whose learning abilities are much poorer (12).\nThe neuroprotective effect according to formula I to protect may be assessed using-the gerbil global ischemia model and such a protocol: […]"}, "[2]": {"test": "Assessment of the BBB passage: brain and plasma sampling", "assay_type": "in vivo, Sprague Dawley rats", "conditions": "rat, i.v. 10 mg/kg; for concentration at 0.25 h / concentration at 0.5 h / concentration at 1 h: pooled n = 2", "text": "c) Assessment of the BBB Passage: Brain and Plasma Sampling\nThe compounds of the present invention are useful in the treatment and/or prophylaxis of cerebral ischemic disorders or CNS disorders. Specifically, the compounds of the present invention show a good capacity to cross the blood-brain barrier (EBB). The BBB passing capacity of the compounds according to formulae I or II may be assessed using the below protocols. The objective of this assay is to quantify the amount of the test compounds according to formulae I or II in the brain of rats following i.v. administration.\nSix male Crl:CD(SD)Br Sprague Dawley rats (about 8 weeks old and having a weight of about 300 g) were divided into the 3 following groups:\n2 animals for i.v. administration (10 mg/kg of test compound of formula I in 0.9% NaCl for injection). The test compound is administered by single dose (dose regimen). The sampling is performed at 0.25 h after sacrifice.\n2 animals for i.v. administration (10 mg/kg of test compound of formula I in 0.9% NaCl for injection). The test compound is administered by single dose (dose regimen). The sampling is performed at 0.5 h after sacrifice.\n2 animals for i.v. administration (10 mg/kg of test compound of formula I in 0.9% NaCl for injection). The test compound is administered by single dose (dose regimen). The sampling is performed at 1 h after sacrifice.\nAt each scheduled killing time, the animals of the corresponding group are deeply anaesthetised with diethyl ether. The blood for the corresponding blood samples is collected into heparinised tubes and centrifuged to remove the blood cells thus providing plasma. Plasma samples obtained at each sampling time (i.e. at t=0.25 h, 0.5 h, 1 h) from the rats of each group after administration of the test compound of formula (I) are pooled in order to obtain 1 pooled sample per sampling time per group. Rats are then sacrificed by exsanguination.\nFor the-brain sampling, the whole brain (cerebrum and cerebellum) of the sacrificed animals is removed. Brain from two animals per sampling time (i.e. at t=0.25 h, 0.5 h, 1 h after administration) are pooled in order to obtain one pooled sample per sampling time. Each pooled sample is homogenized in a solvent mixture (acetonitrile/methanol/dimethyl-sulfoxide, 50:48:2 by volume) centrifuged and the supernatant analyzed for the test compound.\nConcentrations in plasma samples and brain homogenates are quantified according to an analytical HPLC-MS/MS method, properly developed for the compound.\nThe test compound used in this assay is the one set out in Example 1 (i.e. 1,3-benzothiazol-2-yl[2-({4-[(4-methylpiperazin-1-yl)methyl]-benzyl}oxy)pyrimidin-4-yl]acetonitrile."}}, "note": "Where two headings read alike, the source gives them in different places."}
{"smiles": "CN1CCN(Cc2ccc(COc3nccc(C(C#N)c4nc5ccccc5s4)n3)cc2)CC1", "note": "(centres unmarked) [Example 1, 1,3-benzothiazol-2-yl[2-({4-[(4-methylpiperazin-1-yl)methyl]-benzyl}-oxy)pyrimidin-4yl]acetonitrile]", "values": [{"measurement": "inhibition of neuronal death", "setting": "[1]", "result": "about 60%"}, {"measurement": "concentration at 0.25 h", "setting": "[2]; male, Crl:CD(SD)Br Sprague Dawley, brain, iv, 0.25 h, read-out: Brain concentration", "result": 919, "unit": "ng/g"}, {"measurement": "concentration at 0.5 h", "setting": "[2]; male, Crl:CD(SD)Br Sprague Dawley, brain, iv, 0.5 h, read-out: Brain concentration", "result": 657, "unit": "ng/g"}, {"measurement": "concentration at 1 h", "setting": "[2]; male, Crl:CD(SD)Br Sprague Dawley, brain, iv, 1 h, read-out: Brain concentration", "result": 679, "unit": "ng/g"}, {"measurement": "Kp at 0.25 h", "setting": "[2]; male, Crl:CD(SD)Br Sprague Dawley, brain/plasma, iv, 0.25 h, read-out: Brain/Plasma ratio", "result": 0.32}, {"measurement": "Kp at 0.5 h", "setting": "[2]; male, Crl:CD(SD)Br Sprague Dawley, brain/plasma, iv, 0.5 h, read-out: Brain/Plasma ratio", "result": 0.3}, {"measurement": "Kp at 1 h", "setting": "[2]; male, Crl:CD(SD)Br Sprague Dawley, brain/plasma, iv, 1 h, read-out: Brain/Plasma ratio", "result": 0.34}, {"measurement": "concentration at 0.25 h", "setting": "[2]; male, Crl:CD(SD)Br Sprague Dawley, plasma, iv, 0.25 h, read-out: Plasma concentration", "result": 2840, "unit": "ng/mL"}, {"measurement": "concentration at 0.5 h", "setting": "[2]; male, Crl:CD(SD)Br Sprague Dawley, plasma, iv, 0.5 h, read-out: Plasma concentration", "result": 2160, "unit": "ng/mL"}, {"measurement": "concentration at 1 h", "setting": "[2]; male, Crl:CD(SD)Br Sprague Dawley, plasma, iv, 1 h, read-out: Plasma concentration", "result": 1980, "unit": "ng/mL"}, {"measurement": "passage into the brain", "setting": "[2]; 0.25-1 h", "result": "considerable and sustained passage of the test compound into the brain"}]}
